Measured values reported in patent US20260022142A1, “MACROCYCLIC IMMUNOMODULATORS” (Bristol-Myers Squibb Company, priority 2022, published 2026).
Bridge positions count the residues as written; N and C are the ends. Square brackets hold non-standard residues; d marks the D form. Peptide text beside a SMILES is read from it. * marks the point of attachment. ξ: configuration not given here. Phe(4-COOH) = N[C@@H](Cc1ccc(C(=O)O)cc1)C(=O)O; Bip = N[C@@H](Cc1ccc(-c2ccccc2)cc1)C(=O)O; Phe(3-Me) = Cc1cccc(C[C@H](N)C(=O)O)c1; Cha = N[C@@H](CC1CCCCC1)C(=O)O; Cit = NC(=O)NCCC[C@H](N)C(=O)O; Thr(3ξ) = CC(O)[C@H](N)C(=O)O; hSer = N[C@@H](CCO)C(=O)O; Carboxymethyl = O=C(O)C*; Orn = NCCC[C@H](N)C(=O)O; Aun = NCCCCCCCCCCC(=O)O; Dab = NCC[C@H](N)C(=O)O

Molecular target: T1, PD-1/PD-L1 interaction (PE-labeled human PD-L1-Ig binding to Jurkat cell line over-expressing human PD-1) (Homo sapiens, UniProt Q15116)
T1 construct: expressed in transfected cells; host or cells: Jurkat
T1 sequence (Q15116 25-288): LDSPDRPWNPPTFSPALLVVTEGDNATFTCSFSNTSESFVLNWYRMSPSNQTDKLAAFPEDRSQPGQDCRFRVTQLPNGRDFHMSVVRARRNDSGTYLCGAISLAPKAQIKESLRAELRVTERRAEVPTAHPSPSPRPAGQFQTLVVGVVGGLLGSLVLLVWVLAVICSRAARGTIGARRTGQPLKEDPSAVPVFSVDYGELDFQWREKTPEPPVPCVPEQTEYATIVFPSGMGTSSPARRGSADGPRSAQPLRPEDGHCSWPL
Assay: Jurkat-PD-1 Cell Binding High-Content Screening Assay (CBA)
Type: cell-based
Conditions: Jurkat cell line over-expressing human PD-1; PE-labeled PD-L1-Ig 20 nM final; read-out: Jurkat hPD1-PDL1 IC50
How it was run: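 Jurkat cells stably over-expressing human PD-1 were seeded in DMEM with 10% fetal calf serum and pre-incubated with compound for 2 h at 37° C. PE-labeled human PD-L1-Ig was then added at 20 nM final for 1 hour, after which cells were fixed with paraformaldehyde, Hoechst-stained and imaged by high-content microscopy.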

IC50 [nM] | Compound
30.6 | Cc1cccc(C[C@@H]2NC(=O)[C@H](CC(=O)O)NC(=O)[C@H](Cc3ccc(OCC(=O)O)cc3)NC(=O)[C@H](C(C)O)NC(=O)CSC[C@@H](C(=O)N[C@@H](CCN)C(=O)NCCCCCCCCCCC(=O)O)NC(=O)[C@H](C(C)O)NC(=O)[C@H](C(C)C)NC(=O)[C@H](CC3CCCCC3)NC(=O)[C@H](CCN)NC(=O)[C@@H](CC(C)C)NC(=O)[C@H](CCCNC(N)=O)NC(=O)[C@H](Cc3ccc(OCC(=O)O)cc3)NC(=O)[C@H](Cc3ccc(-c4ccccc4)cc3)NC(=O)[C@H](Cc3ccc(OCC(=O)O)cc3)NC2=O)c1 (stereo partly drawn) [Compound 3487] ({CH2CO}-[Thr(3ξ)]Y(Carboxymethyl)D[Phe(3-Me)]Y(Carboxymethyl)[Bip]Y(Carboxymethyl)[Cit][dL][Dab][Cha]V[Thr(3ξ)]C[Dab][Aun]-OH; thioether N-14)
22 | Cc1cccc(C[C@@H]2NC(=O)[C@H](CC(=O)O)NC(=O)[C@H](Cc3ccc(OCC(=O)O)cc3)NC(=O)[C@H](CCCNC(=N)N)NC(=O)CSC[C@@H](C(=O)N[C@H](CC(N)=O)C(=O)NCCCCCCCCCCC(=O)O)NC(=O)[C@H](C(C)O)NC(=O)[C@H](C(C)C)NC(=O)[C@H](CC3CCCCC3)NC(=O)[C@H](CCN)NC(=O)[C@@H](CC(C)C)NC(=O)[C@H](CCCN)NC(=O)[C@H](Cc3ccc(OCC(=O)O)cc3)NC(=O)[C@H](Cc3ccc(-c4ccccc4)cc3)NC(=O)[C@H](Cc3ccc(OCC(=O)O)cc3)NC2=O)c1 (stereo partly drawn) [Compound 3489] ({CH2CO}-RY(Carboxymethyl)D[Phe(3-Me)]Y(Carboxymethyl)[Bip]Y(Carboxymethyl)[Orn][dL][Dab][Cha]V[Thr(3ξ)]C[dN][Aun]-OH; thioether N-14)
5.9 | Cc1cccc(C[C@@H]2NC(=O)[C@H](CC(=O)O)NC(=O)[C@H](Cc3ccc(OCC(=O)O)cc3)NC(=O)[C@H](C(C)O)NC(=O)CSC[C@@H](C(=O)N[C@H](CC(N)=O)C(=O)NCCCCCCCCCCC(=O)O)NC(=O)[C@H](C(C)O)NC(=O)[C@H](C(C)C)NC(=O)[C@H](CC3CCCCC3)NC(=O)[C@H](CCN)NC(=O)[C@@H](CC(C)C)NC(=O)[C@H](CCCN)NC(=O)[C@H](Cc3ccc(OCC(=O)O)cc3)NC(=O)[C@H](Cc3ccc(-c4ccccc4)cc3)NC(=O)[C@H](Cc3ccc(OCC(=O)O)cc3)NC2=O)c1 (stereo partly drawn) [Compound 3490] ({CH2CO}-[Thr(3ξ)]Y(Carboxymethyl)D[Phe(3-Me)]Y(Carboxymethyl)[Bip]Y(Carboxymethyl)[Orn][dL][Dab][Cha]V[Thr(3ξ)]C[dN][Aun]-OH; thioether N-14)
11.4 | Cc1cccc(C[C@@H]2NC(=O)[C@H](CC(=O)O)NC(=O)[C@H](Cc3ccc(OCC(=O)O)cc3)NC(=O)[C@H](CCCNC(=N)N)NC(=O)CSC[C@@H](C(=O)N[C@@H](CCN)C(=O)NCCCCCCCCCCC(=O)O)NC(=O)[C@H](C(C)O)NC(=O)[C@H](C(C)C)NC(=O)[C@H](CC3CCCCC3)NC(=O)[C@H](CCN)NC(=O)[C@@H](CC(C)C)NC(=O)[C@H](CCCN)NC(=O)[C@H](Cc3ccc(C(=O)O)cc3)NC(=O)[C@H](Cc3ccc(-c4ccccc4)cc3)NC(=O)[C@H](Cc3ccc(C(=O)O)cc3)NC2=O)c1 (stereo partly drawn) [Compound 3491] ({CH2CO}-RY(Carboxymethyl)D[Phe(3-Me)][Phe(4-COOH)][Bip][Phe(4-COOH)][Orn][dL][Dab][Cha]V[Thr(3ξ)]C[Dab][Aun]-OH; thioether N-14)
9.8 | Cc1cccc(C[C@@H]2NC(=O)[C@H](CC(=O)O)NC(=O)[C@H](Cc3ccc(OCC(=O)O)cc3)NC(=O)[C@H](C(C)O)NC(=O)CSC[C@@H](C(=O)N[C@H](CC(N)=O)C(=O)NCCCCCCCCCCC(=O)O)NC(=O)[C@H](C(C)O)NC(=O)[C@H](C(C)C)NC(=O)[C@H](CC3CCCCC3)NC(=O)[C@H](CCN)NC(=O)[C@@H](CC(C)C)NC(=O)[C@H](CCCN)NC(=O)[C@H](Cc3ccc(OCC(=O)O)cc3)NC(=O)[C@H](Cc3ccc(-c4ccccc4)cc3)NC(=O)[C@H](C(C)C)NC2=O)c1 (stereo partly drawn) [Compound 3493] ({CH2CO}-[Thr(3ξ)]Y(Carboxymethyl)D[Phe(3-Me)]V[Bip]Y(Carboxymethyl)[Orn][dL][Dab][Cha]V[Thr(3ξ)]C[dN][Aun]-OH; thioether N-14)
16.8 | CC(=O)NCCCC[C@@H]1NC(=O)[C@H](Cc2ccc(OCC(=O)O)cc2)NC(=O)[C@H](Cc2ccc(-c3ccccc3)cc2)NC(=O)[C@H](Cc2ccc(OCC(=O)O)cc2)NC(=O)[C@H](Cc2cccc(C)c2)NC(=O)[C@H](CC(=O)O)NC(=O)[C@H](Cc2ccc(OCC(=O)O)cc2)NC(=O)[C@H](C(C)O)NC(=O)CSC[C@@H](C(=O)N[C@@H](CCN)C(=O)NCCCCCCCCCCC(=O)O)NC(=O)[C@H](C(C)O)NC(=O)[C@H](C(C)C)NC(=O)[C@H](CC2CCCCC2)NC(=O)[C@H](CCN)NC(=O)[C@@H](CC(C)C)NC1=O (stereo partly drawn) [Compound 3495] ({CH2CO}-[Thr(3ξ)]Y(Carboxymethyl)D[Phe(3-Me)]Y(Carboxymethyl)[Bip]Y(Carboxymethyl)K(Ac)[dL][Dab][Cha]V[Thr(3ξ)]C[Dab][Aun]-OH; thioether N-14)
11 | CC(=O)NCCCC[C@@H]1NC(=O)[C@H](Cc2ccc(OCC(=O)O)cc2)NC(=O)[C@H](Cc2ccc(-c3ccccc3)cc2)NC(=O)[C@H](Cc2ccc(OCC(=O)O)cc2)NC(=O)[C@H](Cc2cccc(C)c2)NC(=O)[C@H](CC(=O)O)NC(=O)[C@H](Cc2ccc(OCC(=O)O)cc2)NC(=O)[C@H](CCCNC(=N)N)NC(=O)CSC[C@@H](C(=O)N[C@@H](CCN)C(=O)NCCCCCCCCCCC(=O)O)NC(=O)[C@H](C(C)O)NC(=O)[C@H](C(C)C)NC(=O)[C@H](CC2CCCCC2)NC(=O)[C@H](CCN)NC(=O)[C@@H](CC(C)C)NC1=O (stereo partly drawn) [Compound 3496] ({CH2CO}-RY(Carboxymethyl)D[Phe(3-Me)]Y(Carboxymethyl)[Bip]Y(Carboxymethyl)K(Ac)[dL][Dab][Cha]V[Thr(3ξ)]C[Dab][Aun]-OH; thioether N-14)

Further lines, the compound ahead of its results:

Compound | IC50 [nM]
Cc1cccc(C[C@@H]2NC(=O)[C@H](CC(=O)O)NC(=O)[C@H](Cc3ccc(OCC(=O)O)cc3)NC(=O)[C@H](C(C)O)NC(=O)CSC[C@@H](C(=O)N[C@@H](CCN)C(=O)NCCCCCCCCCCC(=O)O)NC(=O)[C@H](CCO)NC(=O)[C@H](C(C)C)NC(=O)[C@H](CC3CCCCC3)NC(=O)[C@H](CCN)NC(=O)[C@@H](CC(C)C)NC(=O)[C@H](CCCN)NC(=O)[C@H](Cc3ccc(OCC(=O)O)cc3)NC(=O)[C@H](Cc3ccc(-c4ccccc4)cc3)NC(=O)[C@H](Cc3ccc(OCC(=O)O)cc3)NC2=O)c1 (stereo partly drawn) [Compound 3482] ({CH2CO}-[Thr(3ξ)]Y(Carboxymethyl)D[Phe(3-Me)]Y(Carboxymethyl)[Bip]Y(Carboxymethyl)[Orn][dL][Dab][Cha]V[hSer]C[Dab][Aun]-OH; thioether N-14) | 7.5
Cc1cccc(C[C@@H]2NC(=O)[C@H](CC(=O)O)NC(=O)[C@H](Cc3ccc(OCC(=O)O)cc3)NC(=O)[C@H](C(C)O)NC(=O)CSC[C@@H](C(=O)N[C@@H](CCN)C(=O)NCCCCCCCCCCC(=O)O)NC(=O)[C@H](CCO)NC(=O)[C@H](C(C)C)NC(=O)[C@H](CC3CCCCC3)NC(=O)[C@H](CCN)NC(=O)[C@@H](CC(C)C)NC(=O)[C@H](CCCN)NC(=O)[C@H](Cc3ccc(OCC(=O)O)cc3)NC(=O)[C@H](Cc3ccc(-c4ccccc4)cc3)NC(=O)[C@H](Cc3ccc(C(=O)O)cc3)NC2=O)c1 (stereo partly drawn) [Compound 3483] ({CH2CO}-[Thr(3ξ)]Y(Carboxymethyl)D[Phe(3-Me)][Phe(4-COOH)][Bip]Y(Carboxymethyl)[Orn][dL][Dab][Cha]V[hSer]C[Dab][Aun]-OH; thioether N-14) | 9.5
Cc1cccc(C[C@@H]2NC(=O)[C@H](CC(=O)O)NC(=O)[C@H](Cc3ccc(OCC(=O)O)cc3)NC(=O)[C@H](C(C)O)NC(=O)CSC[C@@H](C(=O)N[C@@H](CCN)C(=O)NCCCCCCCCCCC(=O)O)NC(=O)[C@H](C(C)O)NC(=O)[C@H](C(C)C)NC(=O)[C@H](CC3CCCCC3)NC(=O)[C@H](CCN)NC(=O)[C@@H](CC(C)C)NC(=O)[C@H](CCCN)NC(=O)[C@H](Cc3ccc(OCC(=O)O)cc3)NC(=O)[C@H](Cc3ccc(-c4ccccc4)cc3)NC(=O)[C@H](Cc3ccc(C(=O)O)cc3)NC2=O)c1 (stereo partly drawn) [Compound 3484] ({CH2CO}-[Thr(3ξ)]Y(Carboxymethyl)D[Phe(3-Me)][Phe(4-COOH)][Bip]Y(Carboxymethyl)[Orn][dL][Dab][Cha]V[Thr(3ξ)]C[Dab][Aun]-OH; thioether N-14) | 6.7
Cc1cccc(C[C@@H]2NC(=O)[C@H](CC(=O)O)NC(=O)[C@H](Cc3ccc(OCC(=O)O)cc3)NC(=O)[C@H](C(C)O)NC(=O)CSC[C@@H](C(=O)N[C@@H](CCN)C(=O)NCCCCCCCCCCC(=O)O)NC(=O)[C@H](C(C)O)NC(=O)[C@H](C(C)C)NC(=O)[C@H](CC3CCCCC3)NC(=O)[C@H](CCN)NC(=O)[C@@H](CC(C)C)NC(=O)[C@H](CCCN)NC(=O)[C@H](Cc3ccc(OCC(=O)O)cc3)NC(=O)[C@H](Cc3ccc(-c4ccccc4)cc3)NC(=O)[C@H](CCCNC(N)=O)NC2=O)c1 (stereo partly drawn) [Compound 3485] ({CH2CO}-[Thr(3ξ)]Y(Carboxymethyl)D[Phe(3-Me)][Cit][Bip]Y(Carboxymethyl)[Orn][dL][Dab][Cha]V[Thr(3ξ)]C[Dab][Aun]-OH; thioether N-14) | 16.4
Cc1cccc(C[C@@H]2NC(=O)[C@H](CC(=O)O)NC(=O)[C@H](Cc3ccc(OCC(=O)O)cc3)NC(=O)[C@H](CCCNC(=N)N)NC(=O)CSC[C@@H](C(=O)N[C@@H](CCN)C(=O)NCCCCCCCCCCC(=O)O)NC(=O)[C@H](C(C)O)NC(=O)[C@H](C(C)C)NC(=O)[C@H](CC3CCCCC3)NC(=O)[C@H](CCN)NC(=O)[C@@H](CC(C)C)NC(=O)[C@H](CCCNC(N)=O)NC(=O)[C@H](Cc3ccc(OCC(=O)O)cc3)NC(=O)[C@H](Cc3ccc(-c4ccccc4)cc3)NC(=O)[C@H](Cc3ccc(OCC(=O)O)cc3)NC2=O)c1 (stereo partly drawn) [Compound 3486] ({CH2CO}-RY(Carboxymethyl)D[Phe(3-Me)]Y(Carboxymethyl)[Bip]Y(Carboxymethyl)[Cit][dL][Dab][Cha]V[Thr(3ξ)]C[Dab][Aun]-OH; thioether N-14) | 8.4
